# Results published in US20150259331A1, “PROTOZOAN PARASITE GROWTH INHIBITORS” (Northeastern University, priority 2014, published 2015).
# Assays:
# T. cruzi = T. cruzi growth inhibition; format: cell-based, Trypanosoma cruzi; details: Trypanosoma cruzi
# L. major promastigote = L. major promastigote assay; format: cell-based; details: Leishmania major
# P. falciparum C235 = P. falciparum C235 assay; format: cell-based; details: Plasmodium falciparum; strain C235; read-out: P. falciparum C235 (EC50)
# [1] = Thermodynamic aqueous solubility; format: physicochemical
# [2] = Mouse oral pharmacokinetic study; format: in vivo, male BALB/c mice
# Method: Test system. Healthy male BALB/c mice (8-12 weeks old) weighing between 20 to 35 g were procured from In vivo biosciences, Bengaluru, India. Maximum three mice were housed in each polycarbonate cage. […] The temperature and humidity were recorded by auto-controlled data logger system. Animals were provided laboratory rodent diet ([…], Bengaluru) ad libitum and were provided fresh water ad libitum (reverse osmosis water treated with UV light). Study Design. […] The dosing volume administered for was 10 mL/kg. Formulation Preparation. Formulation of NEU-617 was given orally. The strength of oral suspension formulation was 4 mg/mL. The weighed quantity (39.22 mg) of compound NEU-617 for p.o. dosing was added in a mortar. […] Sample Collection. […] The blood samples (approximately 60 μL) were collected from the retro-orbital plexus into labeled tubes, containing K2EDTA solution, as an anticoagulant. Plasma was harvested from the blood by centrifugation at 4000 rpm for 10 min at 4±2° C. and stored below -70° C. until bioanalysis. […] Following collection, the brain samples were washed by dipping in 20 mL of ice-cold phosphate buffer saline (pH 7.4), dried gently on a filter paper, weighed and placed in polypropylene tubes. Further brain samples were homogenized using ice-cold phosphate buffer saline (pH 7.4) and the total homogenate volume was thrice the brain weight. The brain samples were stored at -70° C. until bioanalysis. Data analysis. The Non-Compartmental-Analysis module in WinNonlin® (Version 5.2) was used to assess the pharmacokinetic parameters. Peak plasma concentrations (Cmax) and time for the peak plasma concentrations (Tmax) were the observed values. The areas under the concentration time curve (AUClast and AUCinf) were calculated by linear trapezoidal rule.
# [3] = male
# [4] = male, BALB/c, mouse, brain, 40 mg/kg PO single dose
# [5] = male, BALB/c, mouse, plasma, 40 mg/kg PO single dose
smiles,measurement,setting,value
"Fc1cccc(COc2ccc(Nc3ncnc4ccc(-c5cccc(N6CCOCC6)c5)cc34)cc2Cl)c1 [Compound 23a, N-(3-Chloro-4-((3-fluorobenzyl)oxy)phenyl)-6-(3-morpholinophenyl)quinazolin-4-amine]",EC50,T. cruzi,1800 nM
same,EC50,L. major promastigote,3000 nM
same,EC50,P. falciparum C235,370 nM
same,Solubility,[1],<1 µM
same,CNS fraction,[2]; 40 mg/kg single oral dose,5%
same,time plasma levels were in excess of the EC50,[2]; 40 mg/kg single oral dose,> 12 h
same,AUC(0-t),[2]; [4],92.5 ng·h/mL
same,Cmax,[2]; [4],26 ng/mL
same,Tmax,[2]; [4],0.5 h
same,AUC(0-inf),[2]; [5],2000 ng·h/mL
same,AUC(0-t),[2]; [5],1950 ng·h/mL
same,Cmax,[2]; [5],153 ng/mL
same,Tmax,[2]; [5],2 h
same,Male rat hepatocytes median CLint,[3],44.5 μl/min/1E6 cells
